Assay results: ChEMBL document CHEMBL1201862, “PubChem BioAssay data set” (2004)
Active and inactive are the calls of the source.

How the values were obtained:
HEK293 [1] = test: PMA/Ionomycin induced NF-kB luciferase assay in 293- NF-kB-Luc stable cells. [Related pubchem assays: 1299, 1270, 1295, 1375, 1287, 1281, 1293, 1291, 1289, 1280, 465, 1364, 1282, 1372, 1365, 1370, 1367, 1366, 1269, 1373, 1292, 1290, 1302, 1371, 1283, 1271, 1294, 1374, 1368, 1369 ]; format: functional, cell-based; conditions: Homo sapiens
[2] = target: T1, Luciferin 4-monooxygenase (Photinus pyralis, UniProt P08659); test: Counter Screen for Luciferase-based Assay Positives. [Related pubchem assays: 620, 618, 411 ]
[3] = inhibitors of HIV Env-driven cell fusion, dose response, cherry-pick (AID 652057); format: functional, cell-based
HEK293 [4] = test: Cytotoxicity assay in HEK293 cells. [Related pubchem assays (depositor defined):AID1266, AID1269, AID1270, AID1271, AID1280, AID1281, AID1282, AID1283, AID1287, AID1289, AID1290, AID1291, AID1292, AID1293, AID1294, AID1295, AID1299, AID1302, AID1364, AID1365, AID1366, AID1367, AID1369, AID1370, AID1371, AID1372, AID1373, AID1374, AID1375, AID1384 …; format: functional, cell-based; conditions: Homo sapiens
[5] = off-target signal loss in HeLa-CEM21 co-culture – HeLa F-luc CTL cells, cherry-picked, counter-screen for HIV-1 Env fusion inhibitor project, dose response (AID 652040); format: functional, cell-based;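 also: potency for signal decrease marking cytotoxic or nonspecific inhibition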
HT-1080 = test: cytotoxicity in HT1080 fibrosarcoma cells, cell-based, fluorescence readout (AID 620); format: functional; conditions: Homo sapiens
[6] = inhibitors of clade B AD8 Env fusion, dose response, cell-based, cherry-pick (AID 652062); format: functional;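 also: luciferase signal from cell-cell fusion driven by HIV-1 clade B AD8 Env; potency is for inhibitors of fusion seen as a drop in luminescence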
[7] = target: Glyceraldehyde-3-phosphate dehydrogenase (Homo sapiens, UniProt P04406)
[8] = target: T1, Luciferin 4-monooxygenase; test: In vitro luciferase assay using purified luciferase. [Related pubchem assays: 1299, 1270, 1295, 1375, 1287, 1281, 1293, 1291, 1289, 1280, 465, 1364, 1282, 1372, 1365, 1370, 1367, 1366, 1266, 1373, 1292, 1290, 1302, 1371, 1283, 1271, 1294, 1374, 1368, 1369 ]
[9] = target: Female germline-specific tumor suppressor gld-1 (Caenorhabditis elegans, UniProt Q17339); test: inhibitors of GLD-1 binding to TGE RNA, dose response, biochemical, fluorescence polarization, C. elegans (AID 2802);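 also: fluorescence polarization of labeled TGE RNA bound by purified gld-1 protein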
[10] = target: T2, RNA-binding protein pos-1 (Caenorhabditis elegans, UniProt G5EF15); test: inhibitors of POS-1/mex-3 RNA binding, dose response, biochemical, fluorescence polarization (AID 1964);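 also: purified POS-1 fused to maltose binding protein made in E. coli; potency of compounds blocking POS-1 binding to fluorescent RNA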
T2 sequence (G5EF15 whole entry): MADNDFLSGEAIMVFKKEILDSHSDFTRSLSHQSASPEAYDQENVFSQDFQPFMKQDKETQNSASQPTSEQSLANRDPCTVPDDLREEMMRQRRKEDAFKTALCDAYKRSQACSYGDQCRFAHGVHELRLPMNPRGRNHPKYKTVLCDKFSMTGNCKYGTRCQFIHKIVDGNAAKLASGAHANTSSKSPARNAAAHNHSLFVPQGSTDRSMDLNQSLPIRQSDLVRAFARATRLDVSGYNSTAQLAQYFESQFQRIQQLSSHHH

[11] = target: T3, Zinc finger protein mex-5 (Caenorhabditis elegans, UniProt Q9XUB2); test: MEX-5/TCR-2 RNA interaction inhibitors, dose response, biochemical, C. elegans, fluorescence polarization (AID 1960)
T3 sequence (Q9XUB2 whole entry): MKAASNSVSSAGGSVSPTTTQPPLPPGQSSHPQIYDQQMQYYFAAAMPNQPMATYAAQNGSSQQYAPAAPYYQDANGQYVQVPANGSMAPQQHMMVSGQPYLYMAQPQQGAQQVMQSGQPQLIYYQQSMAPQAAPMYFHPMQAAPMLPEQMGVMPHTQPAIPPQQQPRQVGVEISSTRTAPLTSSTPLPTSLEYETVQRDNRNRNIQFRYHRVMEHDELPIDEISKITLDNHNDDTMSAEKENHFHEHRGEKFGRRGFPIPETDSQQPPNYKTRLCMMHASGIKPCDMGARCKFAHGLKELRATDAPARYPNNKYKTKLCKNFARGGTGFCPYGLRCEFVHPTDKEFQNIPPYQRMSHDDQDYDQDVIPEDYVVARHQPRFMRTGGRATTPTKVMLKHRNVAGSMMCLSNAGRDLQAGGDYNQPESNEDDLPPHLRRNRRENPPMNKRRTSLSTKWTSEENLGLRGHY

Protein Rev = Protein Rev (Human immunodeficiency virus type 1 group M subtype B (isolate HXB2)(HIV-1), UniProt P04618); test: inhibitors of Rev binding to RRE RNA, dose response, biochemical, fluorescence polarization, HIV-1 (AID 434976); design: species or system Human immunodeficiency virus 1
[12] = target: T4, Protein phosphatase methylesterase 1 (Homo sapiens, UniProt Q9Y570); test: Late stage results from the probe development effort to identify inhibitors of the protein methylesterase PME-1: Gel-based Activity-Based Protein Profiling (ABPP) IC50: Purified enzyme.; format: functional
[13] = target: T4, Protein phosphatase methylesterase 1; test: PME-1 inhibitor potency by in-gel ABPP, dose response, selectivity assay for PME-1 inhibitor project, cell lysate, mouse brain cytosol, FP-rhodamine, panel member PME-1 Assay Panel member description: Inhibition of endogenously expressed PME-1 (AID 2366)
[14] = cytotoxicity toward NIH3T3 fibroblasts, dose response, counter-screen, cell-based, ATP luminescence, mouse fibroblasts (AID 2010); format: functional;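 also: cells exposed to compound for about 90 hours before reading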
[15] = inhibitors of intracellular T. cruzi replication, confirmation, NIH3T3 host cells, beta-gal luminescence (AID 2044); format: functional, cell-based;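 also: intracellular parasites grown in NIH/3T3 mouse fibroblasts as host cells; luminescent beta-galactosidase reporter signal from transgenic T. cruzi replicating inside host cells; inhibitors lower the luminescence signal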
[16] = target: Serine/threonine-protein phosphatase PP1-alpha catalytic subunit (Homo sapiens, UniProt P62136); test: PP1 phosphatase inhibitors, dose response, biochemical, fluorescence (AID 2403);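 also: phosphatase turnover of OMFP into fluorescent 3-O-methylfluorescein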
[17] = target: Serine/threonine-protein phosphatase (Homo sapiens, UniProt Q9BPW0); test: Counterscreen for inhibitors of PP1: fluorescence-based biochemical high throughput dose response assay to identify inhibitors of Protein Phosphatase 5 (PP5). [Related pubchem assays: 2034 (Summary (PP5 inhibitors)), 1987 (PP5 inhibitors in singlate), 2235 (PP1 inhibitors in singlate)]
[18] = THP-1 cell cytotoxicity, dose response, cytotoxicity control for non-replicating M. tuberculosis project (AID 489025); format: functional
[19] = Vero E6 cell cytotoxicity, dose response, cytotoxicity control for non-replicating M. tuberculosis project, secondary assay (AID 492998); format: functional, VeroE6; conditions: Vero C1008
cells = format: functional
Nonstructural protein 1 = Nonstructural protein 1 (Influenza A virus, UniProt Q194T2); format: functional, Influenza A virus (A/California/07/2009(H1N1))
[20] = target: Voltage-dependent T-type calcium channel subunit alpha-1H (Homo sapiens, UniProt O95180); format: functional;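 also: channel activity triggered by adding a high calcium stimulation buffer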
[21] = target: Glucose-6-phosphate 1-dehydrogenase (Homo sapiens, UniProt P11413); test: human G6PD enzyme inhibitors, dose response, selectivity assay for P. falciparum G6PD inhibitor project, biochemical, fluorescence (AID 504792); format: functional
[22] = cytotoxicity in KRAS-transformed pancreatic duct cells, primary screen, cell-based, fluorescence, HTS (AID 431); format: functional; conditions: Homo sapiens;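 also: cell line used: HPDE-C7K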
[23] = cytotoxicity in HPDE-C7 cells, cell-based, fluorescence, HTS (AID 430); format: functional; conditions: Homo sapiens
[24] = target: Phosphoethanolamine/phosphocholine phosphatase (Homo sapiens, UniProt Q8TCT1); test: SAR assay for compounds that inhibit PHOSPHO1. [Related pubchem assays (depositor defined):AID1545, AID1565, AID1574]
[25] = target: T5, Mannose-6-phosphate isomerase (Homo sapiens, UniProt P34949); test: PMI enzyme inhibitors, confirmation, biochemical, fluorescence intensity (AID 1535)
T5 sequence (P34949 whole entry): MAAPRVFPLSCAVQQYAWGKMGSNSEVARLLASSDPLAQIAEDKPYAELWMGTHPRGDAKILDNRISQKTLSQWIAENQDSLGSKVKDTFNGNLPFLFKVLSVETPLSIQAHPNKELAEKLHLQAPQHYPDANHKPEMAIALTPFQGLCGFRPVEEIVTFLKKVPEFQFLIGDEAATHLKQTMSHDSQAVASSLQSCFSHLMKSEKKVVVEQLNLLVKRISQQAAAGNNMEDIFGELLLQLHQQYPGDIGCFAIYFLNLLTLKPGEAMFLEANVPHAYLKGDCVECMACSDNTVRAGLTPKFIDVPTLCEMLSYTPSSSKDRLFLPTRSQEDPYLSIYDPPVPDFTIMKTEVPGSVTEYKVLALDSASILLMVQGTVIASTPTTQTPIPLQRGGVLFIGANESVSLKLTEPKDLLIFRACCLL

Phosphomannomutase 2 = Phosphomannomutase 2 (Homo sapiens, UniProt O15305); test: Counter screen SAR assay for PMM2 inhibitors via a fluorescence intensity assay. [Related pubchem assays (depositor defined):AID1545, AID1574]
Fatty acid synthase [26] = target: T6, Fatty acid synthase (Homo sapiens, UniProt P49327); test: FAS thioesterase domain inhibitors, dose response, biochemical, endpoint fluorescence intensity, uHTS hits (AID 624327); format: functional;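 also: fluorescence from hydrolysis of an O-methyl fluorescein acyl ester substrate by the enzyme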
Fatty acid synthase [27] = target: T6, Fatty acid synthase; test: FAS thioesterase domain inhibitors, dose response, biochemical, kinetic fluorescence intensity (AID 624326); format: functional;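 also: rate of fluorescence rise from hydrolysis of a fluorogenic O-methyl fluorescein ester substrate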
[28] = target: Neurotensin receptor type 1 (Homo sapiens, UniProt P30989); format: functional;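 also: Image-based confirmatory dose-response assay measuring agonist activity at NTR1; NTR1-expressing U2OS osteosarcoma cells imaged for beta-arrestin GFP spot formation; agonist potency where compounds increase beta-arrestin recruitment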

T4 sequence (Q9Y570 whole entry): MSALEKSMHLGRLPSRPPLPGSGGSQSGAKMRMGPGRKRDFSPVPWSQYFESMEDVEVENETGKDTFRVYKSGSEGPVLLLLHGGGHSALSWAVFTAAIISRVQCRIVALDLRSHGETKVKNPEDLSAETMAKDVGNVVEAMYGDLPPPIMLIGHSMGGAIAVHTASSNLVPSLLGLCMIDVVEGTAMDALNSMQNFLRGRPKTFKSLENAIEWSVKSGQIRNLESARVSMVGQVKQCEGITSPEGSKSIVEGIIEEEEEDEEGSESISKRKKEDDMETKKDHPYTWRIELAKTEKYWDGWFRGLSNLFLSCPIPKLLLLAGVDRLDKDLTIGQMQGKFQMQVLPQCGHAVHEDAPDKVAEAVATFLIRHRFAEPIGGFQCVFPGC
Glyceraldehyde-3-phosphate dehydrogenase, sequence (P04406 whole entry): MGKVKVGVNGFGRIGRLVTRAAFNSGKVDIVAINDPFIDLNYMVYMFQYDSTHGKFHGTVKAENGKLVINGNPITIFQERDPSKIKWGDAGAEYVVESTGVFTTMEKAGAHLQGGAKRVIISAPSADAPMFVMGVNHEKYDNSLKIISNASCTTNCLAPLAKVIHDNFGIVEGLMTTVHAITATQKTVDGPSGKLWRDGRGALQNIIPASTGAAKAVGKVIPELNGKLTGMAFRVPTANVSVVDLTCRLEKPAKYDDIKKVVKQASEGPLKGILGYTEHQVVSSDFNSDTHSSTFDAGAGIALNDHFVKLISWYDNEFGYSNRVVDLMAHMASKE
T1 sequence (P08659 whole entry, the tested form may be a part): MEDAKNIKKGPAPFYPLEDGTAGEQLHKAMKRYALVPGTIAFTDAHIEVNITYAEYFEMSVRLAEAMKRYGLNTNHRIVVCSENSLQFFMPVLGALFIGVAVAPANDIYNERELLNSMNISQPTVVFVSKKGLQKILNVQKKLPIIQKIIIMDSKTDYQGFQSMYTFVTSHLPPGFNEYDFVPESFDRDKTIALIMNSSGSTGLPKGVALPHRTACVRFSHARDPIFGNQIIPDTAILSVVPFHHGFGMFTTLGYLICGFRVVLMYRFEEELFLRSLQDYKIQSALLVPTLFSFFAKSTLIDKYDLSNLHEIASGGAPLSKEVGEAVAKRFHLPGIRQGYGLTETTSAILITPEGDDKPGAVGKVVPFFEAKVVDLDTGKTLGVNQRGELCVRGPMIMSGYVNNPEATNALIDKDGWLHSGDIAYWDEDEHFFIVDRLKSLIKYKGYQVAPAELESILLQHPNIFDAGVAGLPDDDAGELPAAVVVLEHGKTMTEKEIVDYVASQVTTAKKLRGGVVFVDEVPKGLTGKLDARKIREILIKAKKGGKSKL
T6 sequence (P49327 whole entry, the tested form may be a part): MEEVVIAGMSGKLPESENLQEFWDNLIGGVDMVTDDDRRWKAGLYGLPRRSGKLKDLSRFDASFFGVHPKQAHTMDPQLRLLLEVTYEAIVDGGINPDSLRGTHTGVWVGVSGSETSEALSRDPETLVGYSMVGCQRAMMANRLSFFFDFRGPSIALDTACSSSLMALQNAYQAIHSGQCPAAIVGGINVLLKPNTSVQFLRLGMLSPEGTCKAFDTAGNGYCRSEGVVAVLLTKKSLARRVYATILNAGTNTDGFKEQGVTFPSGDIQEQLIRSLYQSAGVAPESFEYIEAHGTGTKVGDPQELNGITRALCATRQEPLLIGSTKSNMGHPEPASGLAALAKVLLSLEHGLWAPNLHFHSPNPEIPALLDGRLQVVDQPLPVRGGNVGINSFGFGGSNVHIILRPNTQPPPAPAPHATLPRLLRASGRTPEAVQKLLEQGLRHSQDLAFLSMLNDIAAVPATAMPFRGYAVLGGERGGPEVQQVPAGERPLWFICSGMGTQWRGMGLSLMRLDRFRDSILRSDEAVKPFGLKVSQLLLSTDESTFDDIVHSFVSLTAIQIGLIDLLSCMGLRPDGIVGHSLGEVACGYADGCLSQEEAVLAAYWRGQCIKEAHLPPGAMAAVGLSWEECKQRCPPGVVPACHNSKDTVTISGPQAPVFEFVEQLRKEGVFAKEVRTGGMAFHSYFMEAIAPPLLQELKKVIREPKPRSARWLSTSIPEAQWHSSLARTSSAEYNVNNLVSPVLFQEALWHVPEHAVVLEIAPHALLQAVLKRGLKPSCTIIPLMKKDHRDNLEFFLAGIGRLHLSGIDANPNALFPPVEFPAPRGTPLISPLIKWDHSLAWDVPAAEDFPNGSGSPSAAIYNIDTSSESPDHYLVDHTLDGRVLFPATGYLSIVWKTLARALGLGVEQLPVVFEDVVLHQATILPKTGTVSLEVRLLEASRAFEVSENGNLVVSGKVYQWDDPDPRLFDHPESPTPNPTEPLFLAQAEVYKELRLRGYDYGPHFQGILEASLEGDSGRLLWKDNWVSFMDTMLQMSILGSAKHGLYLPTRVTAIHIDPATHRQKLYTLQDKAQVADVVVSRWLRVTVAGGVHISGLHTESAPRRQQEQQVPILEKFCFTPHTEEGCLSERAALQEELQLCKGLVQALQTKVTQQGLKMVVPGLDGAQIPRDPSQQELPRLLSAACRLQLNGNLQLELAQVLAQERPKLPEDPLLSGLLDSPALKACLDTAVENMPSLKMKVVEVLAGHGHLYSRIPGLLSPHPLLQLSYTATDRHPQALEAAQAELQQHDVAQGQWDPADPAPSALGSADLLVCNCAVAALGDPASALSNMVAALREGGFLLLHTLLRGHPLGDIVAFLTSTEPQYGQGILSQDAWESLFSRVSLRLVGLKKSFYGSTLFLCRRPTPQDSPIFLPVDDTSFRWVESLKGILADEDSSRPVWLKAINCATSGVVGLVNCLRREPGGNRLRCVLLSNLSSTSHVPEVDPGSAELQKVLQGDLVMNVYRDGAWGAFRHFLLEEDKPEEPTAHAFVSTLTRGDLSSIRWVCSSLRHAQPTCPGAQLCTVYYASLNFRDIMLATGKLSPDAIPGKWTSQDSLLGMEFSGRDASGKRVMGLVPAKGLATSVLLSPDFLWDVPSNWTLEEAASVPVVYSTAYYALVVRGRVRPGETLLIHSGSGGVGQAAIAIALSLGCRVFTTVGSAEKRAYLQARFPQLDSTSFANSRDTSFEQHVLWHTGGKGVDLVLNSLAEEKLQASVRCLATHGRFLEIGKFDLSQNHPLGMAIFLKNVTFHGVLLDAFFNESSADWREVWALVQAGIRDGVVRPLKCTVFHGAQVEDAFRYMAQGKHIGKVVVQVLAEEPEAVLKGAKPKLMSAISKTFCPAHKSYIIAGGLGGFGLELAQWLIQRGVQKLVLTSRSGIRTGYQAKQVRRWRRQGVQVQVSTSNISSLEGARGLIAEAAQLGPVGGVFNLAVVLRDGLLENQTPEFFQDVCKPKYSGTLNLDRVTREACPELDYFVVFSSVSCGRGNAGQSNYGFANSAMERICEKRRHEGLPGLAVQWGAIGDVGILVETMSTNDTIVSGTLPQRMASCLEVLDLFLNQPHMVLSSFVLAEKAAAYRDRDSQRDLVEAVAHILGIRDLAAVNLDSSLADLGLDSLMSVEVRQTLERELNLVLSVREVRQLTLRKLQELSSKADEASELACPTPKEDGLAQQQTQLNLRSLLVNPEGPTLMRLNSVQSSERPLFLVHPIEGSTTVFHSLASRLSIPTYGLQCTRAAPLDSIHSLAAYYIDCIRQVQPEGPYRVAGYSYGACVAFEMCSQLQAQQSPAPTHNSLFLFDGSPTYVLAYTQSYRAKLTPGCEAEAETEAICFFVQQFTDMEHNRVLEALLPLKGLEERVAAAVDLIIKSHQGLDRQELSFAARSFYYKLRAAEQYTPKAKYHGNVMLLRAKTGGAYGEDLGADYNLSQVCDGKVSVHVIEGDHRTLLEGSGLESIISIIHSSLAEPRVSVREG
Female germline-specific tumor suppressor gld-1, sequence (Q17339 whole entry, the tested form may be a part): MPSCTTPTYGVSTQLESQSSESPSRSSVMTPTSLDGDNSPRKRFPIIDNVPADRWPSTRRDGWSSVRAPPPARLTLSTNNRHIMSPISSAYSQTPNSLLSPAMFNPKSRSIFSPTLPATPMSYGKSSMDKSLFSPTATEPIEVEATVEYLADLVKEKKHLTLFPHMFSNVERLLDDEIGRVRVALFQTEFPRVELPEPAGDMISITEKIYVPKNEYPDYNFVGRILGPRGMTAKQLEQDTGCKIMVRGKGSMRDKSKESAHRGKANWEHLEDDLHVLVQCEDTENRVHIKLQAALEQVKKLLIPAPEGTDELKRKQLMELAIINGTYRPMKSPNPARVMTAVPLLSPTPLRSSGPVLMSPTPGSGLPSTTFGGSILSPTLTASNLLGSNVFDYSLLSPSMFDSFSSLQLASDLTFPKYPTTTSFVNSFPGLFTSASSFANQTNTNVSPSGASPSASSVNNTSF
Glucose-6-phosphate 1-dehydrogenase, sequence (P11413 whole entry): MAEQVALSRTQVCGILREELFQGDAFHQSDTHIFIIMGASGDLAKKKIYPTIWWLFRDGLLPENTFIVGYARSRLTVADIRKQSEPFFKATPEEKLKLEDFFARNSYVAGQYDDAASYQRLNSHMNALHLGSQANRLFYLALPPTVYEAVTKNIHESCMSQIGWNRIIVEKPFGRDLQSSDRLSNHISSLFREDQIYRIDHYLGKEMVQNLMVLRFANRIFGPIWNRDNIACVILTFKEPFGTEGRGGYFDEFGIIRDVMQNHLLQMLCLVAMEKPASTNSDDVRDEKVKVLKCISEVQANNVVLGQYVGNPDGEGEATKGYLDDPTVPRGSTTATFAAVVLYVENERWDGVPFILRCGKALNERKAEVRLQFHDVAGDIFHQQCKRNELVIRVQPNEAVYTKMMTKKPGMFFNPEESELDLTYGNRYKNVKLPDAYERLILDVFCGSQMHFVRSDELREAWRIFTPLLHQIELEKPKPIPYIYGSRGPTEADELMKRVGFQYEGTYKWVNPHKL
Protein Rev, sequence (P04618 whole entry): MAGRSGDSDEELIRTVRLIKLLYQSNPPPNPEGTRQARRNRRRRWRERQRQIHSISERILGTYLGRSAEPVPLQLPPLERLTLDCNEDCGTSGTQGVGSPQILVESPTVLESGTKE

O=C(c1ccc(Cl)cc1)N1CCCCC(Sc2nnc(-c3ccc4c(c3)OCO4)o2)C1=O (stereo unspecified)
EC50 (HEK293 [1]): 4.25 µM (not active)
EC50 [2]: 4.07 µM (active)
AC50 [3]: 2.78 µM (active)
EC50 (HEK293 [4]): 2.19 µM (active)
AC50 [5]: 13.5 µM (active)
EC50 (HT-1080): > 50 µM (not active)
AC50 [6]: 5.75 µM (active)
IC50 [7]: > 100 µM (not active)
EC50 [8]: > 8 µM (not active)

CCCCN(C(=O)c1ccc([N+](=O)[O-])o1)c1c(N)n(CC(C)C)c(=O)[nH]c1=O
IC50 [9]: 2.74 µM (active)
EC50 [10]: 18.7 µM (active)
EC50 [11]: 16 µM (active)
IC50 (Protein Rev): 7.26 µM (active)

CS(=O)(=O)/C(C#N)=C/c1ccccc1
IC50 [12]: > 20 µM (not active)
IC50 [13]: > 20 µM (inactive)

Cc1cccc(Nc2nc(-c3ccccn3)cs2)n1
EC50 [14]: 8.56 µM (active)
EC50 [15]: 0.503 µM (active)
IC50 [16]: 4.96 µM (active)
IC50 [17]: > 22.3 µM (not active)
CC50 [18]: 21.8 µM (active)
CC50 [19]: 11.6 µM (active)
IC50 [7]: > 10 µM (inconclusive)
IC50 (cells): 0.27 µM (active)
IC50 (Nonstructural protein 1): 29.6 µM (active)
EC50 [20]: 7.24 µM (active)

O=c1c2ccccc2sn1-c1ccc(S(=O)(=O)N2CCCC2)cc1
EC50 [14]: > 30 µM (not active)
IC50 [21]: 30.7 µM (inactive)
EC50 [22]: > 20 µM (not active)
EC50 [15]: 1.29 µM (active)
EC50 [23]: > 20 µM (not active)
IC50 [24]: 0.489 µM (active)
IC50 [25]: > 50 µM (inactive)
IC50 (Phosphomannomutase 2): > 100 µM (inactive)

C[C@@H](NC(=O)c1[nH]cnc1C(=O)Nc1ccc(Cl)cc1)c1ccccc1
IC50 (Fatty acid synthase [26]): 8.13 µM (active)
IC50 (Fatty acid synthase [27]): 7.01 µM (active)
EC50 [28]: 19.9 µM (active)
